The values below are quoted from earlier work in patent US10695309B2 (Western New England University, priority 2017, dated 2020).

What is called half-life is how long it takes for the measured level to halve.

The conditions of the data set: for half-life: in vivo.

As to `N[C@@H](Cc1cc(I)c(Oc2ccc(O)c(I)c2)c(I)c1)C(=O)O` [Formulation T3, Liothyronine], the half-life entry is “less than 2 days”. Further, where the note is “reported”, the bioavailability is given as 69-99%.

On to `N[C@@H](Cc1cc(I)c(Oc2cc(I)c(O)c(I)c2)c(I)c1)C(=O)O` [Formulation T4, levothyroxine], for which the half-life is 140 to 170 h.
